Results reported in patent US20220017520A1, “MACROCYCLIC COMPOUND AS CDK INHIBITOR, PREPARATION METHOD THEREFOR, AND USE THEREOF IN MEDICINE” (Keythera (Suzhou) Pharmaceuticals Co. Ltd., priority 2018, published 2022).
Like-named read-outs stand apart in the source and are kept apart here.

Assays:
[1] = system: MCF-7 cells; test: In vitro cell proliferation assay by BrdU method; type: cell-based; conditions: Homo sapiens, MCF7, 72 hours, 10% FBS
Procedure: In Vitro Cell Inhibitory Activity of the Compound of the Present Invention
Experimental method: Cell proliferation assay was carried out by BrdU method (BrdU cell proliferation assay kit, Cell Signaling Technology Co.)
Preparation of gradient dilution solution of test compound: the 10 mM stock solution of test compound was subjected to 4-fold serial gradient dilution with DMSO to obtain solutions with a concentration of 2.5 mM, […], respectively. 2 μL of DMSO-diluted compound was added to 198 μL of culture medium containing 10% FBS to obtain 10-fold test compound, wherein the maximum concentration of the test compound was 10 μM, the DMSO concentration was 1%, with a total of 7 concentration gradients.
MCF-7 culture medium: DMEM+10% FBS+0.01 mg/mL insulin
(1) Cells grown to 80% (in exponential growth phase) were digested with pancreatin, and were collected by centrifugation. MDA-MB-435S cells and U87MG cells were re-suspended in a FBS-free culture medium, counted and inoculated to a 96-well plate; MDA-MB-435S cells were inoculated at 3000 cells/well/81 μL, and U87MG cells were inoculated at 4000 cells/well/81 μL. MCF-7 cells were resuspended in a culture medium containing 1% FBS, counted and inoculated to a 96-well plate at 4000 cell/well/82 μL. The cells were incubated in a cell incubator at 37° C.
(2) After 24 hours of incubation, FBS (9 μL) was added to each well of the MDA-MB-435S cells and U87MG cells, and 8 μL of FBS was added to each well of the MCF-7 cells, so as to obtain a final FBS concentration of 10%.
(3) A different concentration of 10-fold test compound (10 μL) was added to each well to obtain a final concentration of test compound of 10 μM, 2.5 μM, 625 nM, 156 nM, 39 nM, 9.8 nM or 2.5 nM, respectively, with 3 repeated wells/group, and the cells were incubated at 37° C. for 72 hours.
(4) 10-fold BrdU solution (10 μL) was added to each well, and the cells were incubated in the incubator for 4 hours, followed by discarding the culture medium.
(5) Fixing/denaturation solution (10 μL) was added to each well, and the cells were incubated at room temperature for 30 minutes, followed by discarding the solution.
(6) 1-fold detection antibody solution (100 μL) was added to each well, the cells were incubated at room temperature for 1 hour, followed by discarding the solution, and the cells were washed with 1-fold washing solution (200 μL/well) three times.
(7) 1-fold HRP-labelled secondary antibody solution (100 μL) was added to each well, the cells were incubated at room temperature for 30 minutes, followed by discarding the solution, and the cells were washed with 1-fold washing solution (200 μL/well) three times.
(8) TMB substrate solution (100 μL) was added to each well, and the cells were incubated at room temperature for 30 minutes.
(9) Stop solution (100 μL) was added to each well, and the OD value at 450 nm was measured by a microplate reader.
1) Cell survival rate (%)=(ODtest compound−ODblank control)/(ODnormal cell control−ODblank control)×100%,
2) The data was processed by GraphPad Prism 5 software to obtain the curve and IC50 values.

[2] = amide bond, HATU, dichloromethane, 25.0 °C, 16.0 h
[3] = target: CDK6/D3 (Homo sapiens, UniProt Q00534); test: Inhibitory activity on CDK6 kinase by Caliper Mobility Shift method; type: biochemical; conditions: CDK6/D3, 28° C. for 5 hours
CDK6/D3, sequence (Q00534 whole entry, species assumed): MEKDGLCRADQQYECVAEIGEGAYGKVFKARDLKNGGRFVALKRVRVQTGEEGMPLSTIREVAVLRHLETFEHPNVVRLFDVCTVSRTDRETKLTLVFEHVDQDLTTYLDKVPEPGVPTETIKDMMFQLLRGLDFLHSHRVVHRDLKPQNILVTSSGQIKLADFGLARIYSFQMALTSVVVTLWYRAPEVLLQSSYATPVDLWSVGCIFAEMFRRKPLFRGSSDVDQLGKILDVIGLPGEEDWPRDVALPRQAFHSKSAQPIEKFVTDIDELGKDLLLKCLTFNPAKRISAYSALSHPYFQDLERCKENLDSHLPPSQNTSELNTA
CDK6/D3, sequence (P30281 whole entry partner, species assumed): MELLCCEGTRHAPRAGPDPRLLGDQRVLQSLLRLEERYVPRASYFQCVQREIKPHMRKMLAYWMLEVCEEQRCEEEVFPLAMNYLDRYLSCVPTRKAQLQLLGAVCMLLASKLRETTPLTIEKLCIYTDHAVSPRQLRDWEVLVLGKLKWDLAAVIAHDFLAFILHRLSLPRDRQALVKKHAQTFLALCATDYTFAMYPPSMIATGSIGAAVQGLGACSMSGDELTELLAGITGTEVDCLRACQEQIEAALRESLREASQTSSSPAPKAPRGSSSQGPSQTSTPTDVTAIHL
Procedure: (§1) Experimental method: Inhibitory activity on CDK4/6 kinase was determined by Caliper Mobility Shift method
2) Preparation of 1-fold CDK6 kinase buffer solution
50 mL of 1000 mM HEPES stock solution (pH 7.5) and 50 μL of 30% Brij-35 stock solution were added to 949.95 mL of ultra pure water, and the resulting solution was mixed well.
(§2) 25 mL of 4% Coating Reagent #3 (provided with the 12-sipper chip used in Caliper device) stock solution, 50 mL of 1000 mM HEPES stock solution (pH 7.5), 50 mL of 0.5 M EDTA stock solution and 0.25 mL of 30% Brij-35 stock solution were added to 374.75 mL of ultra pure water, and the resulting solution was mixed well.
2) Preparation of 2.5-fold CDK6/D3 kinase solution 18 μL of CDK6/D3 enzyme solution and 14 μL of 1M DTT stock solution were added to 2768 μL of 1-fold CDK6 kinase buffer solution, and the resulting solution was mixed well.
2) Preparation of 2.5-fold CDK6/D3 polypeptide solution
23 μL of 100 mM ATP stock solution, 75 μL of 1M MgCl2 stock solution and 75 μL of FAM-labelled polypeptide 8 were added to 2827 μL of 1-fold CDK6 kinase buffer solution, and the resulting solution was mixed well.
(§3) A 10 mM solution of the test compound in DMSO was diluted with DMSO to obtain a solution with a concentration of 50 μM, which was used as the stock solution. Said stock solution was subjected to 4-fold gradient dilution with DMSO to obtain solutions with a concentration of […], 3.12 μM, 0.78 μM, 0.19 μM, 0.048 μM, 12.2 nM, 3 nM, 0.76 nM and 0.19 nM, respectively. Each of the resulting solution was 10-fold diluted with 1-fold kinase buffer solution to obtain a 5-fold compound solution.
(§4) 1) 5 μL of the prepared 5-fold test compound solution and 10 μL of the prepared 2.5-fold kinase solution were added to the corresponding wells in a 384-well plate, and the plate was incubated at room temperature for 10 minutes.
(§5) 2) 10 μL of the prepared 2.5-fold polypeptide solution was added to the corresponding wells to start the enzymatic reaction, and the plate was incubated at 28° C. for 5 hours.
(§6) 25 μL of stop solution was added to each corresponding well to stop the reaction.
(§7) 8. The data was read by the Caliper device, the inhibition rate was calculated by the following formula, and curve fitting was carried out by GraphPad5.0 software to obtain the IC50 value.

[4] = target: CDK4/D3 (Homo sapiens, UniProt P11802); test: Inhibitory activity on CDK4 kinase by Caliper Mobility Shift method; type: biochemical; conditions: CDK4/D3, 28° C. for 5 hours
CDK4/D3, sequence (P11802 whole entry, species assumed): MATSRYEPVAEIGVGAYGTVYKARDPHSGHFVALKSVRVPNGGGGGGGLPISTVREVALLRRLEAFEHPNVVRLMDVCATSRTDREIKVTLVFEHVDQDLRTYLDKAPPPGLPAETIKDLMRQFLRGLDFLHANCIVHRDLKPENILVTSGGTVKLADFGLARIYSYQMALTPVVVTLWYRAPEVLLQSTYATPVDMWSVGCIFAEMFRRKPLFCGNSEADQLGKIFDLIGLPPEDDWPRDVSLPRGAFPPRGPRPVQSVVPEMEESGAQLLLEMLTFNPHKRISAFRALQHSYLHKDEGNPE
CDK4/D3, sequence (P30281 whole entry partner, species assumed): as the sequence (P30281 whole entry partner, species assumed) above
Procedure: Determination of Inhibitory Effect on CDK4/Cyclin D1
The determination of IC50 of CDK4/Cyclin D1 was conducted according to the following process. A 96-well filter plate (Millipore MADVN6550) was used. The total volume was 0.1 ml, containing buffer solution A (20 mM TRIS (tris[hydroxymethyl]aminomethane) (pH7.4), 50 mM NaCl, 1 mM dithiothreitol, 10 mM MgCl2), 2 μM ATP (containing […][32P]ATP), 20 ng CDK4, […] retinoblastoma protein and the test compound diluted in buffer solution A in an appropriate ratio. Buffer solution A alone without the test compound was used as the control without inhibitory effect. Buffer solution A containing excess EDTA was used to determine the background 32P level in the absence of enzymatic activity. All components except ATP were added to the wells, and the plate was shaked on a plate mixer for 2 minutes. [32P]ATP was added to initiate the reaction, and the plate was incubated at 25° C. for 15 minutes. 0.1 ml of 20% trichloroacetic acid (TCA) was added to stop the reaction. The plate was kept at 4° C. for at least 1 hour to allow the substrate to precipitate. The wells were washed five times with 0.2 ml of 10% TCA, and the binding of 32P was measured using a R plate counter (wallac Inc., Gaithersburg, Md.). IC50 of the test compound was determined by median effect method (Chou, T-C and Talalay P. Applications of the median effect principle for the assessment of low-dose risk of carcinogens and for the quantitation of synergism and antagonism of chemotherapeutic agents. In New Avenues in Developmental Cancer Chemotherapy (Eds. Harrap, K. T. and Connors, T. A.), pp. 37-64. Academic Press, New York, 1987).
as §1
1) Preparation of 1-fold CDK4 kinase buffer solution
800 μL of 1000 mM HEPES stock solution (pH 7.5) and 40 μL of 10% Triton X-100 stock solution were added to 39160 μL of ultra pure water, and the resulting solution was mixed well.
as §2
1) Preparation of 2.5-fold CDK4/D3 kinase solution
7 μL of CDK4/D3 enzyme solution and 9 μL of 1M DTT stock solution were added to 1784 μL of 1-fold CDK4 kinase buffer solution, and the resulting solution was mixed well.
1) Preparation of 2.5-fold CDK4/D3 polypeptide solution
10 µL of 100 mM ATP stock solution, 45 μL of 1M MgCl2 stock solution and 45 μL of FAM-labelled polypeptide 8 were added to 1700 μL of 1-fold CDK4 kinase buffer solution, and the resulting solution was mixed well.
as §3, §4, §5, §6, §7

[5] = system: neointima formation; conditions: rats; cited from earlier work

## CCN1CCN(Cc2cnc3cc2NC(=O)C[C@@H](C)n2c(C)nc4c(F)cc(cc42)-c2nc(ncc2F)N3)CC1 [Example 2, (R)-4^5-((4-Ethylpiperazin-1-yl)methyl)-1^4,2^5-difluoro-1^2,8-dimethyl-1^1H-3,5-diaza-1(6,1)-benzo[d]imidazola-2(4,2)-pyrimidina-4(2,4)-pyridinacyclooctaphan-6-one]
[1]
  IC50: 42 nM
[2]; from CCN1CCN(Cc2cnc(Nc3ncc(F)c(-c4cc(F)c5nc(C)n([C@H](C)CC(=O)O)c5c4)n3)cc2N)CC1, 13.8 mM
  ring closure, yield of all isomers: 7.4%
[3]
  IC50: 0.35 nM
[4]
  IC50: 0.49 nM

## CCN1CCN(Cc2cnc3cc2NC(=O)CC(C)n2ccc4ccc(cc42)-c2nc(ncc2F)N3)CC1 (stereo not shown) [Example 7, 4^5-((4-Ethylpiperazin-1-yl)methyl)-2^5-fluoro-8-methyl-1^1H-3,5-diaza-1(6,1)-indola-2(4,2)-pyrimidina-4(2,4)-pyridinacyclo-octaphan-6-one]
[2]; from CCN1CCN(Cc2cnc(Nc3ncc(F)c(-c4ccc5ccn(C(C)CC(=O)O)c5c4)n3)cc2N)CC1, 14.0 mM
  ring closure, yield of all isomers: 33.3%
[3]
  IC50: 2.5 nM
[4]
  IC50: 1.5 nM

## CCN1CCN(Cc2cnc3cc2NC(=O)C[C@H](C)n2c(C)nc4c(F)cc(cc42)-c2nc(ncc2F)N3)CC1 [Example 3, (S)-4^5-((4-Ethylpiperazin-1-yl)methyl)-1^4,2^5-difluoro-1^2,8-dimethyl-1^1H-3,5-diaza-1(6,1)-benzo[d]imidazola-2(4,2)-pyrimidina-4(2,4)-pyridinacyclooctaphan-6-one]
[1]
  IC50: 4120 nM
[3]
  IC50: 27 nM
[4]
  IC50: 15 nM

## CCN1CCN(Cc2cnc3cc2NC(=O)CC(C)n2c(C)nc4c(F)cc(cc42)-c2nc(ncc2F)N3)CC1 (stereo not shown) [Example 1, 4^5-((4-Ethylpiperazin-1-yl)methyl)-1^4,2^5-difluoro-1^2,8-dimethyl-1^1H-3,5-diaza-1(6,1)-benzo[d]imidazola-2(4,2)-pyrimidina-4(2,4)-pyridinacyclooctaphan-6-one]
[1]
  IC50: 142 nM
[2]; from CCN1CCN(Cc2cnc(Nc3ncc(F)c(-c4cc(F)c5nc(C)n(C(C)CC(=O)O)c5c4)n3)cc2N)CC1, 14.0 mM
  ring closure, yield of all isomers: 8.3%
[3]
  IC50: 0.48 nM
[4]
  IC50: 0.7 nM

## CCN1CCN(Cc2cnc3cc2NC(=O)CC2(CC2)n2c(C)nc4c(F)cc(cc42)-c2nc(ncc2F)N3)CC1 [Example 9, 5′-((4-Ethylpiperazin-1-yl)methyl)-4′,5′-difluoro-2′-methylspiro[cyclopropane-1,8′-3,5-diaza-1(6,1)-benzo[d]imidazola-2(4,2)-pyrimidina-4(2,4)-pyridinacyclooctaphan]-6′-one]
[3]
  IC50: 12 nM
[4]
  IC50: 5 nM

## COc1ccc(CNc2nc(N(CCO)CCO)nc3c2ncn3C(C)C)cc1 [CVT-313]
[5]
  inhibition of neointima formation: greater than 80%

## CCN1CCN(Cc2cnc3cc2NC(=O)CCn2c(C)nc4c(F)cc(cc42)-c2nc(ncc2F)N3)CC1 [Example 4, 4^5-((4-Ethylpiperazin-1-yl)methyl)-1^4,2^5-difluoro-1^2-methyl-1^1H-3,5-diaza-1(6,1)-benzo[d]imidazola-2(4,2)-pyrimidina-4(2,4)-pyridinacyclooctaphan-6-one]
[1]
  IC50: 132 nM
[2]; from CCN1CCN(Cc2cnc(Nc3ncc(F)c(-c4cc(F)c5nc(C)n(CCC(=O)O)c5c4)n3)cc2N)CC1, 18.0 mM
  ring closure, yield of all isomers: 7.3%
[3]
  IC50: 1.13 nM
[4]
  IC50: 0.78 nM

## CCN1CCN(Cc2cnc3cc2NCCC(C)n2c(C)nc4c(F)cc(cc42)-c2nc(ncc2F)N3)CC1 (stereo not shown) [Example 5, 4^5-((4-Ethylpiperazin-1-yl)methyl)-1^4,2^5-difluoro-1^2,8-dimethyl-1^1H-3,5-diaza-1(6,1)-benzo[d]imidazola-2(4,2)-pyrimidina-4(2,4)-pyridinacyclooctaphane]
[3]
  IC50: 14 nM
[4]
  IC50: 21 nM

## CCN1CCN(Cc2cnc3cc2NC(=O)CC(C)(C)n2c(C)nc4c(F)cc(cc42)-c2nc(ncc2F)N3)CC1 [Example 8, 4^5-((4-Ethylpiperazin-1-yl)methyl)-1^4,2^5-difluoro-1^2,8,8-trimethyl-1^1H-3,5-diaza-1(6,1)-benzo[d]imidazola-2(4,2)-pyrimidina-4(2,4)-pyridinacyclooctaphan-6-one]
[3]
  IC50: 10 nM
[4]
  IC50: 8 nM
